Reference: ChEMBL document CHEMBL3272086, “Antimalarials. 9. Methylthio- and methylsulfonyl-substituted 9-phenanthrenemethanols” (1976)
Active and inactive are the calls of the source. No cut-off for these calls is given here.

Tests used:
Plasmodium berghei [1] = test: Antimalarial activity against Plasmodium berghei infected in mouse assessed as change in mean survival time at 20 mg/kg, sc administered 72 hrs post infection as single dose (reference value: 6.2 days); type: functional; details: route subcutaneous
Plasmodium berghei [2] = test: Antimalarial activity against Plasmodium berghei infected in mouse assessed as change in mean survival time at 40 mg/kg, sc administered 72 hrs post infection as single dose (reference value: 6.2 days); type: functional; details: route subcutaneous
Plasmodium berghei [3] = test: Antimalarial activity against Plasmodium berghei infected in mouse assessed as cure from disease at 320 mg/kg, sc administered 72 hrs post infection as single dose measured post 60 days; type: functional, organism-based; design: dose 320 mg/kg
Plasmodium berghei [4] = test: Antimalarial activity against Plasmodium berghei infected in mouse assessed as cure from disease at 160 mg/kg, sc administered 72 hrs post infection as single dose measured post 60 days; type: functional, organism-based; design: dose 160 mg/kg
Plasmodium berghei [5] = test: Antimalarial activity against Plasmodium berghei infected in mouse assessed as change in mean survival time at 160 mg/kg, sc administered 72 hrs post infection as single dose (reference value: 6.2 days); type: functional; details: route subcutaneous
Plasmodium berghei [6] = test: Antimalarial activity against Plasmodium berghei infected in mouse assessed as change in mean survival time at 80 mg/kg, sc administered 72 hrs post infection as single dose (reference value: 6.2 days); type: functional; details: route subcutaneous
Plasmodium berghei [7] = test: Antimalarial activity against Plasmodium berghei infected in mouse assessed as change in mean survival time at 320 mg/kg, sc administered 72 hrs post infection as single dose (reference value: 6.2 days); type: functional; details: route subcutaneous

Structure (SMILES)	MST (Plasmodium berghei [1]) [days]	MST (Plasmodium berghei [2]) [days]	Activity (Plasmodium berghei [3])	Activity (Plasmodium berghei [4])	MST (Plasmodium berghei [5]) [days]	MST (Plasmodium berghei [6]) [days]	MST (Plasmodium berghei [7]) [days]
CCCCN(CCCC)CC(O)c1cc2cc(SC)ccc2c2c(Cl)c(Cl)ccc12.Cl (stereo not given)	9.3	10.7	–	–	–	–	–
CCCCN(CCCC)CC(O)c1cc2cc(Cl)cc(Cl)c2c2cc(SC)ccc12.Cl (stereo not given)	10.5	–	Active	Active	–	–	–
CCCCN(CCCC)CC(O)c1cc2cc(SC)ccc2c2cc(SC)ccc12.Cl (stereo not given)	0.7	5.9	Active	–	16.1	11.5	–
CCCCN(CCCC)CC(O)c1cc2cc(Br)ccc2c2cc(S(C)(=O)=O)ccc12.Cl (stereo not given)	0.6	1.2	–	–	–	10.8	–
CCCCN(CCCC)CC(O)c1cc2cc(SC)ccc2c2cc(Cl)c(Cl)cc12.Cl (stereo not given)	9.1	10.3	–	Active	–	–	–
CCCCN(CCCC)CC(O)c1cc2cc(S(C)(=O)=O)ccc2c2cc(Cl)c(Cl)cc12.Cl (stereo not given)	4.9	8.5	Active	–	–	–	–
CCCCN(CCCC)CC(O)c1cc2cc(S(C)(=O)=O)ccc2c2cc(S(C)(=O)=O)ccc12.Cl (stereo not given)	–	0.1	–	–	0.3	0.3	0.3
CCCCN(CCCC)CC(O)c1cc2cc(Br)ccc2c2cc(SC)ccc12.Cl (stereo not given)	2.8	8.6	–	–	–	9.5	–
CCCCN(CCCC)CC(O)c1cc2cc(S(C)(=O)=O)ccc2c2c(Cl)c(Cl)ccc12.Cl (stereo not given)	4.7	7.7	Active	–	–	14.9	–
